Entries after “also recorded” stand apart in the source; their conditions may differ.
Columns and labels:
[1] = test system: Salmonella typhimurium ATCC 14028; experiment: MIC and synergy index of natamycin/LAE solutions; assay type: cell-based
Description: (§1) In this example the influence of the synergism of combinations of LAE and natamycin in the inventive composition has been investigated.
(§2) For that purpose propylene glycol solutions with different concentrations of LAE and natamyin were prepared.
(§3) The effects of these preparations were investigated against the moulds Aspergillus niger, Penicillium caseicolum, Cladosporium cladosporioides and Rhizopus, the bacteria Escherichia coli (ATCC 8739), Salmonella typhimurium (ATCC 14028), Listeria monocytogenes (ATCC 15313), Bacillus subtilis (ATCC 6633) and the yeasts Candida albicans (ATCC 10231) and Saccharomyces cerevisiae (ATCC 9763).
(§4) The table indicates the MIC values found at different relationship between natamycin and LAE, whereby a value for natamycin: LAE 1:1 means the same concentration for both substances in the antimicrobial composition.
(§5) The interaction of the two components of the antimicrobial mixture is calculated according to the method described by Kull et al. (Kull F. C., Eisman P. C., Sylwestrowicz H. D. and Mayer R. L., Applied Microbiology, 1961; 6: 538-541). According to this method the so-called synergy index is calculated according to the following formula:
(§6) Synergy index SI=Qlae/QLAE+Qn/QN.
(§7) The elements used for the calculation of the synergy index according to the above formula have the following meaning: • Qlae=minimum inhibition concentration of LAE in the mixture of LAE and natamycin, • QLAE=minimum inhibition concentration of LAE as single antimicrobial without natamycin, • Qn=minimum inhibition concentration of natamycin in the mixture of LAE and natamycin and • QN=minimum inhibition concentration of natamycin as single antimicrobial without LAE.
(§8) All indicated symbols indicate a particular concentration leading to a particular end point, in this case the inhibition of growth of the microorganisms, so that the selected end point is in fact the minimal inhibitory concentration (MIC).
(§9) When the synergy index is 1, then there is an addition of the effects of the two components.
(§10) Qn: MIC of natamycin in the mixture of natamycin and LAE QN: MIC of natamycin alone Qlae: MIC of LAE in the mixture of natamycin and LAE QLAE: MIC of LAE alone
(§11) The MIC values of natamycin alone (QN) reported in tables 5 to 8 corresponds to the maximum value studied. However, the real MIC of natamycin is higher than the maximum values studied (i.e.: 1024, 2048), accordingly the real SI should be lower than the SI reported in the tables.

[2] = test system: Escherichia coli ATCC 8739; experiment: MIC and synergy index of natamycin/LAE solutions; assay type: cell-based
Description: as §1, §2, §3, §4, §5, §6, §7, §8, §9, §10, §11

[3] = test system: Listeria monocytogenes ATCC 15313; experiment: MIC and synergy index of natamycin/LAE solutions; assay type: cell-based
Description: as §1, §2, §3, §4, §5, §6, §7, §8, §9, §10, §11

[4] = test system: Bacillus subtilis ATCC 6633; experiment: MIC and synergy index of natamycin/LAE solutions; assay type: cell-based
Description: as §1, §2, §3, §4, §5, §6, §7, §8, §9, §10, §11

[5] = test system: Candida albicans ATCC 10231; experiment: MIC and synergy index of natamycin/LAE solutions; assay type: cell-based
Description: as §1, §2, §3, §4, §5, §6, §7, §8, §9, §10

Rhizopus = experiment: MIC and synergy index of natamycin/LAE solutions; assay type: cell-based
Description: as §1, §2, §3, §4, §5, §6, §7, §8, §9, §10

[6] = test system: Cladosporium cladosporioides; experiment: MIC and synergy index of natamycin/LAE solutions; assay type: cell-based
Description: as §1, §2, §3, §4, §5, §6, §7, §8, §9, §10

Aspergillus niger = experiment: MIC and synergy index of natamycin/LAE solutions; assay type: cell-based
Description: as §1, §2, §3, §4, §5, §6, §7, §8, §9, §10

[7] = test system: Saccharomyces cerevisiae ATCC 9763; experiment: MIC and synergy index of natamycin/LAE solutions; assay type: cell-based
Description: as §1, §2, §3, §4, §5, §6, §7, §8, §9, §10

Penicillium caseicolum = experiment: MIC and synergy index of natamycin/LAE solutions; assay type: cell-based
Description: as §1, §2, §3, §4, §5, §6, §7, §8, §9, §10

[8] = Solubility of natamycin in aqueous solution with LAE; assay type: physicochemical; settings: 10% of LAE in water
Excerpt: According to the dose level between natamycin and LAE, the total solubility of natamycin was observed. […] This low viscosity improves the application process of the solution in the product desired to be treated.

[9] = cited from earlier work
[10] = test system: Penicillum casicolum, Rizopus, Aspergillus niger and Cladosporium cladosporioides; experiment: Microbiocidal effect on inoculated cured cheese immersed in baths; assay type: cell-based; settings: Lauric arginate 10% bath, 5 seconds immersion; inoculated 4 log CFU/g; 22° C.; up to 15 days; separate treatments; monohydrochloride
Description: Cured cheese was purchased from a local producer. The cheese contains cow milk, sheep milk, goat milk, starters, salt, rennet. The minimum amount of fat 55%/dry weight. Minimum 45 dry weight. Lauric arginate-from […] with purity 90% Ethyl-N^α-lauroyl-L-arginate HCl. Natamycin-95% in dry weight commercially available. Inoculums is a mix of Penicillum casicolum, Rizopus, Aspergillus niger and Cladosporium cladosporioides. Spores seeded in Sabouraud Chloramphenirol agar are incubated at 25° C. for 5 days. Spores are scraped of the agar with Ringer broth and diluted in Brain Heart Infusion broth. Brain Heart Infusion broth is incubated at 25° C. for 5 days. Diluted inoculums are mixed at the desire concentration in order to have the mix inoculums. […] The cheese was sliced and cut in equal portions of 5 centimeters of diameter by 5 millimeters wide in sterile surroundings. The portions of cheese were immersed in the bath for 5 seconds. They were dripped and dried for 5 minutes in a sterile surface. After this, each sample was inoculated with Penicillum casicolum, Rizopus, Aspergillus niger and Cladosporium cladosporioides at target concentration of 4 log CFU/g. Natamycin 95% concentrations: two differently concentrated baths of natamycin were prepared: 500 ppm and 1000 ppm. Lauric arginate concentrations: four differently concentrated baths of Lauric arginate were prepared: 0.5%, 1%, 5% and 10%. […]

[11] = value is the maximum value studied, real MIC is higher

C[C@@H]1C/C=C/C=C/C=C/C=C/[C@H](O[C@@H]2O[C@H](C)[C@@H](O)[C@H](N)[C@@H]2O)C[C@@H]2O[C@](O)(C[C@@H](O)C[C@H]3O[C@@H]3/C=C/C(=O)O1)C[C@H](O)[C@H]2C(=O)O [natamycin]
QN: MIC of natamycin alone [1, 11]: > 2048
QN: MIC of natamycin alone [2, 11]: > 1024
QN: MIC of natamycin alone [3, 11]: > 1024
QN: MIC of natamycin alone [4, 11]: > 2048
QN: MIC of natamycin alone [5]: 2
QN: MIC of natamycin alone (Rhizopus): 4
QN: MIC of natamycin alone [6]: 1
QN: MIC of natamycin alone (Aspergillus niger): 2
QN: MIC of natamycin alone [7]: 2.5
QN: MIC of natamycin alone (Penicillium caseicolum): 1
natamycin solubilised [8]: more than 1000 ppm
solubility of natamycin in water [9]: 0.005-0.010 % (w/w)

CCCCCCCCCCCC(=O)N[C@@H](CCCN=C(N)N)C(=O)OCC.Cl [LAE, ethyl ester of the lauramide of the arginine monohydrochloride]
QLAE: MIC of LAE alone [1]: 32
QLAE: MIC of LAE alone [2]: 32
QLAE: MIC of LAE alone [3]: 32
QLAE: MIC of LAE alone [4]: 16
QLAE: MIC of LAE alone [5]: 16
QLAE: MIC of LAE alone (Rhizopus): 648
QLAE: MIC of LAE alone [6]: 64
QLAE: MIC of LAE alone (Aspergillus niger): 128
QLAE: MIC of LAE alone [7]: 32
QLAE: MIC of LAE alone (Penicillium caseicolum): 256
inhibitory power / microbiocidal effect on cured cheese [10]: best treatment; also recorded: effective
